Results from patent US20230263766A1, “CANNABINOID-CONTAINING FORMULATIONS FOR PARKINSONIAN MOVEMENT DISORDERS” (GBS Global BioPharma, Inc., priority 2021, published 2023).

Legend:
zebrafish larvae = assay: Validation of the larval zebrafish OHDA model; format: in vivo
Protocol: All compounds were diluted in 100% methanol (MeOH) and experiments were performed in a HEPES buffered E3 (HE3) medium (5 mM NaCl, 0.17 mM KCl, 0.33 mM CaCl2-2H2O, 0.33 mM MgSO4-7H2O, 10 mM HEPES, pH 7.2). Individual 120 hours post fertilization (hpf) larval zebrafish were transferred to a 48-well microtiter plate in 500 µL of HE3 media. Larvae were acclimated for at least one hour in a lighted 28.5° C. incubator (photon flux: 3-5 µmol s-1 m2) prior to experimentation and larval behavior was analyzed using DanioVision larval tracking systems with EthoVisionXT14/15 software (Noldus Information Technology Inc., Virginia, USA). Distance traveled was measured using dynamic subtraction at 28.5° C. over 120 minutes with the first 90 minutes under lighted conditions (15 µmol m-2 s-1), followed by alternating 5-minute dark/light cycles. Each larvae represents an independent measurement. […] 12 larvae were used in each experimental condition, and at least 2 replicates of each concentration were performed.
Larvae were exposed to varying concentrations of 6-hydroxydopamine (OHDA) from 48-120 hours post fertilization (hpf). 15 dechorionated larvae were transferred in 5 mL of HE3 to each well of a six-well plate. The 5 mL exposure media was replaced daily, and ascorbic acid/saline buffer (used to resuspend OHDA) was used as a vehicle control. Larvae were then loaded into 48-well microtiter plate in 500 µL of HE3 media as described above.
In addition to distance travelled, activity was measured as a percentage change in pixel density during data acquisition. […] The frequency with which larvae switched between activity states and the cumulative duration of time spent in each activity state was then measured. Metrics were captured in 1 min bins, and the average over 90 minutes was used to calculate each metric in each activity state. For frequency calculations, the number of times larvae switched between activity states (high, moderate, and low) was calculated (termed Total Frequency). The cumulative amount of time spent in the high and moderate activity states combined (termed Cumulative Duration) was averaged over 90 minutes and measured as a percentage.

Cath.a cells = assay: In vitro neuroprotection assay (MPTP/MPP+ cytotoxicity, MTT cell viability); format: cell-based, mouse
Protocol: (§1) Cell lines used were from ATCC. Cath.a cells (sp. = mouse, cat# CRL-11179, ATCC, Manassas, Virginia, US), a CNS catecholaminergic cell line, were cultured according to ATCC instructions and were induced to CAD differentiated status by serum deprivation (0.5% FBS culture for 36 h) prior to experiments as described (Qi et al., 1997, Neurosci, 17, 1217-25). PC12 (sp. = rat, ATCC #CRL-1721) were cultured in RPMI 10% FBS. PC12 differentiation used Minimal Essential M medium containing 1% HS and 0.5% FBS, then the cells were treated with 100 ng/ml NGF, 100 ng/ml basic fibroblast growth factor (bFGF), and serum-starved media containing 2 mg/ml BSA for 2 days (Joen et al., 2010. Synapse, 64, pgs 765-72).
Neuroprotective effects were assessed based on the ability of both individual compounds and mixtures of compounds to protect against neuronal cell death induced by 1-methyl-4-phenylpyridinium (MPP+) in the 1-methyl-4-phenyl-1,2,3,6-tetrahydropyridine (MPTP)-based selective cytotoxicity assay (Arshad et al., 2014, Acta Biochim Biophys Sin (Shanghai), 46, 22-30). MPP+ is an active metabolite of MPTP that is known to cause human Parkinsonism after injection. […] Cell viability was assessed 24 h after exposure to MPP, which is […] after exposure to the tested compound or compound mixture. […]

[1] = system: differentiated PC12 cells; assay: In vitro dopamine-release assay (Dopamine ELISA); format: cell-based, rat; settings: 10 µM of each compound; 30 mins; normalized to PMA/Ionomycin control; mean +/- SD
Protocol: as §1
In parallel with the neuroprotection assays, cannabinoid and terpene compounds were tested alone and in mixtures to determine their effects on dopamine release from differentiated PC12 cells. PC12 cells were differentiated as in (Joen et al., 2010. Synapse, 64, pgs 765-72; Hu et al., 2018, Int J Mol Med, 41, 195-201). Supernatant samples were collected from 3 replicate wells 30 mins after application of PMA/Ionomycin (positive control) or the indicated compounds, and dopamine was measured in the medium using the Dopamine ELISA Kit #KA1887 from Abnova (Abnova, California, US) according to manufacturer’s instructions. […]

NCCc1cc(O)c(O)cc1O [OHDA, 6-hydroxydopamine]
startle response (zebrafish larvae; 150 µM OHDA): not impacting the startle response
maximum response to the light/dark transition (startle response) (zebrafish larvae; 225 µM OHDA): non-significant increase in the maximum response to the light/dark transition
baseline activity during initial 90-minute period in the light (zebrafish larvae; OHDA exposure 48-120 hpf): concentration-dependent decrease in the baseline activity
fraction of time in high activity (zebrafish larvae; OHDA treated larvae): 1%
fraction of time in moderate activity (zebrafish larvae; OHDA treated larvae): 5%
fraction of time in the inactive state (zebrafish larvae; OHDA treated larvae): ~ 90%
reduction in activity state transitions for all three states (zebrafish larvae; OHDA treatment vs untreated): 50-60%

CCCCCc1cc(O)c2c(c1)OC(C)(CCC=C(C)C)C=C2 (centres unmarked) [CBC, Cannabichromene]
neuroprotective effect of individual compounds (Cath.a cells; 10 µM, MPTP/MPP+ induced apoptosis): all of the individual cannabinoids except CBC displayed some neuroprotective effects

CCCCCc1cc(O)c2c(c1)OC(C)(C)c1ccc(C)cc1-2 [CBN, Cannabinol]
DOPA release [1]: 8.1 +/- 0.4%

C=C(C)[C@@H]1CCC(C)=C[C@H]1c1c(O)cc(CCCCC)cc1O [CBD, Cannabidiol]
DOPA release [1]: 6.0 +/- 0.3%
effect of adding a major cannabinoid to MIX-1, MIX-2, MIX-3 on cell survival (Cath.a cells; 10 µM each, equimolar): increased cell survival in all three mixtures
